Target: T1, human PAH with the R408W mutation (Homo sapiens, UniProt P00439, R408W)
T1 construct: expressed in transfected cells
T1 sequence (P00439 1-452 R408W): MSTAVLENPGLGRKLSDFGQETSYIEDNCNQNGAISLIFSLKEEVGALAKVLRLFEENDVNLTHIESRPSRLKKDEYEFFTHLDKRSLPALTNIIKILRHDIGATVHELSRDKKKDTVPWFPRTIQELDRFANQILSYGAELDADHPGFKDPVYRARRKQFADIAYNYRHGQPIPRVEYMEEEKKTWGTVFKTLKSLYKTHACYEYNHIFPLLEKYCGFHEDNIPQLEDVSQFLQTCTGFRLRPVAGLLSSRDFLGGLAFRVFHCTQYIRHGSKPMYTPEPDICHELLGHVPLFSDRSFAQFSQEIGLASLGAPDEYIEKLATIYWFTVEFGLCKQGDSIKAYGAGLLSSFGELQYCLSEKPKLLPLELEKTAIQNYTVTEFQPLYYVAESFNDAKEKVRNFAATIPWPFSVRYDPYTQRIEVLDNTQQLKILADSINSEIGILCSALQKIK
Test: Cell Based Phenylalanine Flux Assay
Set-up: scale not given here
Conditions: A375 R408W cells, 24 hrs with compound, then 20 μM sepiapterin and 800 μM 13C9,15N-Phenylalanine for 4 hours; 13C-Tyrosine by LC-MS; average where tested multiple times

| AC50 | SMILES |
| --- | --- |
| E, E | Cc1ncoc1C(=O)N1CC(C)c2[nH]cnc2C1c1cc2ccccc2cn1 [(4S, 7S) diastereomer of 3-[7-methyl-5-(4-methyl-1,3-oxazole] |
| E, E | O=C(c1oc(-c2ccc(F)cn2)nc1C(F)F)N1CCc2[nH]cnc2C1c1ncc2ccccc2n1 (stereo not shown) |
| E, E | CN1CCN(c2nc(C(F)F)c(C(=O)N3CCc4[nH]cnc4C3c3ncc4ccccc4n3)o2)CC1 (stereo not shown) |
| E, E | CC1CN(C(=O)c2nnc(C(C)(C)O)o2)C(c2cc3ccccc3cn2)c2nc[nH]c21 [(4S, 7S) diastereomer of 2-{5-[4-(isoquinolin-3-yl)-7-methyl] |

Same assay, conditions: A375 R408W cells, 24 hrs with compound, then 20 μM sepiapterin and 800 μM 13C9,15N-Phenylalanine for 4 hours; 13C-Tyrosine by LC-MS; average where tested multiple times; read-out: AC50

| SMILES | AC50 |
| --- | --- |
| O=C(CCc1ccc(F)cc1)N1CCc2[nH]cnc2C1c1ccc2ccccc2c1 (stereo not shown) | > 5000 nM |
| Cc1c(-c2nnc(C(=O)N3C[C@@H](C)c4[nH]cnc4[C@@H]3c3cc4ccccc4cn3)o2)cnn1C | 1000 to 5000 nM |
| C[C@H]1CN(C(=O)c2nnc(N3CC(F)C3)o2)[C@H](c2cc3ccccc3cn2)c2nc[nH]c21 (single isomer, unassigned) | 1000 to 5000 nM |
| O=C(c1oc(-c2ccccn2)nc1C1CC1)N1CCCc2[nH]cnc2C1c1cn2ccccc2n1 (stereo not shown) | > 5000 nM |
| CC1CN(C(=O)c2nnc(N3CC(F)C3)o2)C(c2cc3ccccc3cn2)c2nc[nH]c21 [(4S, 7S) diastereomer of 3-[5-[5-(3-fluoroazetidin-1-yl)-1,3] | > 5000 nM |
| CN(C)Cc1ccc2c(C(=O)N3CCc4[nH]cnc4C3c3cn4ccccc4n3)cnn2c1 (stereo not shown) | > 5000 nM |
| O=C(CCc1cncs1)N1CCc2[nH]cnc2C1c1cn2ccccc2n1 (stereo not shown) | > 5000 nM |

More lines, now with the values ahead:

| AC50 | SMILES |
| --- | --- |
| 1000 to 5000 nM | O=C(c1cnn(-c2ccccn2)c1)N1CCc2[nH]cnc2C1c1ccc2ccccc2n1 (stereo not shown) |
| > 5000 nM | Cn1cc(-c2ncc(C(=O)N3CCc4[nH]cnc4C3c3ncc4ccccc4n3)o2)cn1 (stereo not shown) |
| > 5000 nM | O=C(c1nnc(COC(F)(F)F)o1)N1CCc2[nH]cnc2C1c1ccc2ccccc2n1 (stereo not shown) |
| 1000 to 5000 nM | O=C(c1nnc(-c2ccn(CC(F)F)n2)o1)N1CCc2[nH]cnc2C1c1ccc2ccccc2n1 (stereo not shown) [listing 1 of 2 here] |
| > 5000 nM | O=C(c1nnc(-c2ccn(CC(F)F)n2)o1)N1CCc2[nH]cnc2C1c1ccc2ccccc2n1 (stereo not shown) [listing 2 of 2 here] |
| 1000 to 5000 nM | O=C(C1CC1(F)F)N1CCc2[nH]cnc2C1c1ccc2ccccc2n1 (stereo not shown) |
| > 5000 nM | COCCNc1nnc(C(=O)N2CCc3[nH]cnc3C2c2ccc3ccccc3n2)o1 (stereo not shown) |

Same assay, conditions: A375 cells expressing human R408W PAH; 24 hrs compound incubation; 13C-Tyrosine by LC-MS; average where tested multiple times; read-out: AC50

| SMILES | AC50 |
| --- | --- |
| CN1CCN(Cc2ccc3c(C(=O)N4CCc5[nH]cnc5[C@H]4c4cc5ccccc5cn4)cnn3c2)CC1 [Example 488, (R)-(4-(isoquinolin-3-yl)-6,7-dihydro-1H-imidazo[4,5-c]pyridin-5(4H)-yl)(6-((4-methylpiperazin-1-yl)methyl)pyrazolo[1,5-a]pyridin-3-yl)methanone] | < 500 nM |
| O=C(c1cnn2cc(-c3ncccn3)ccc12)N1CCc2[nH]cnc2[C@H]1c1cc2ccccc2cn1 [Example 483, (R)-(4-(isoquinolin-3-yl)-6,7-dihydro-1H-imidazo[4,5-c]pyridin-5(4H)-yl)(6-(pyrimidin-2-yl)pyrazolo[1,5-a]pyridin-3-yl)methanone] | < 500 nM |
| O=C(c1oc(-c2ccccn2)nc1C1CC1)N1CCCc2[nH]cnc2[C@H]1c1cc2ccccc2cn1 (single isomer, unassigned) [Example 379] | 1000 to 5000 nM |
| O=C(c1cnc(-c2ccccn2)s1)N1CCc2[nH]cnc2[C@@H]1c1cc2ccccc2cn1 [Example 301, (S)-(4-(isoquinolin-3-yl)-6,7-dihydro-1H-imidazo[4,5-c]pyridin-5(4H)-yl)(2-(pyridin-2-yl)thiazol-5-yl)methanone] | > 5000 nM |
| CN(C)Cc1ccc2c(C(=O)N3CCc4[nH]cnc4[C@@H]3c3cc4ccccc4cn3)cnn2c1 [Example 331, (S)-(6-((dimethylamino)methyl)pyrazolo[1,5-a]pyridin-3-yl)(4-(isoquinolin-3-yl)-6,7-dihydro-1H-imidazo[4,5-c]pyridin-5(4H)-yl)methanone] | > 5000 nM |
| CC(C)(C)c1ncc(C(=O)N2CCc3[nH]cnc3[C@@H]2c2cn3ccccc3n2)s1 [Example 246, (S)-(2-(tert-butyl)thiazol-5-yl)(4-(imidazo[1,2-a]pyridin-2-yl)-6,7-dihydro-1H-imidazo[4,5-c]pyridin-5(4H)-yl)methanone] | > 5000 nM |

Next, values leading:

| AC50 | SMILES |
| --- | --- |
| > 5000 nM | Cn1ncnc1C(=O)N1CCc2[nH]cnc2[C@@H]1c1ccc2ccccc2n1 [Example 79] |
| 500 to 1000 nM | O=C(c1nnc(C2CC(F)(F)C2)o1)N1CCc2[nH]cnc2[C@H]1c1ncc2ccccc2n1 [Example 151, (S)-(5-(3,3-difluorocyclobutyl)-1,3,4-oxadiazol-2-yl)(4-(quinazolin-2-yl)-6,7-dihydro-1H-imidazo[4,5-c]pyridin-5(4H)-yl)methanone] |
| > 5000 nM | O=C(c1ccnn1C(F)F)N1CCc2[nH]cnc2C1c1ccc2ccccc2n1 (stereo in doubt) [Example 82, (S)-(1-(difluoromethyl)-1H-pyrazol-5-yl)(4-(quinolin-2-yl)-6,7-dihydro-1H-imidazo[4,5-c]pyridin-5(4H)-yl)methanone] |
| > 5000 nM | CC(C)(F)c1ncc(C(=O)N2CCc3[nH]cnc3C2c2ccc3ccccc3n2)s1 (stereo in doubt) [Example 16, (S)-(2-(2-fluoropropan-2-yl)thiazol-5-yl)(4-(quinolin-2-yl)-6,7-dihydro-1H-imidazo[4,5-c]pyridin-5(4H)-yl)methanone] |
| < 500 nM | CC(O)c1nc(Br)c(C(=O)N2CCc3[nH]cnc3[C@H]2c2ccc3ccccc3n2)o1 (single isomer, unassigned) [Example 133] |
| < 500 nM | Cc1nn(C)cc1-c1nnc(C(=O)N2CCc3[nH]cnc3[C@H]2c2ncc3ccccc3n2)o1 [Example 200, (S)-(5-(1,3-dimethyl-1H-pyrazol-4-yl)-1,3,4-oxadiazol-2-yl)(4-(quinazolin-2-yl)-6,7-dihydro-1H-imidazo[4,5-c]pyridin-5(4H)-yl)methanone] |
| > 5000 nM | O=C(c1nnc(-c2ccc(F)c(F)c2)o1)N1CCc2[nH]cnc2C1c1ccc2ccccc2n1 (stereo in doubt) [Example 70, (S)-(5-(3,4-difluorophenyl)-1,3,4-oxadiazol-2-yl)(4-(quinolin-2-yl)-6,7-dihydro-1H-imidazo[4,5-c]pyridin-5(4H)-yl)methanone] |
| < 500 nM | COCc1nc(C(F)F)c(C(=O)N2CCc3[nH]cnc3C2c2ccc3ccccc3n2)o1 (stereo in doubt) [Example 77, (R)-(4-(difluoromethyl)-2-(methoxymethyl)oxazol-5-yl)(4-(quinolin-2-yl)-6,7-dihydro-1H-imidazo[4,5-c]pyridin-5(4H)-yl)methanone] |
| 500 to 1000 nM | Cn1cc(-c2nnc(C(=O)N3CCc4[nH]cnc4C3c3ccc4ccccc4n3)o2)cn1 (stereo in doubt) [Example 47, (R)-(5-(1-methyl-1H-pyrazol-4-yl)-1,3,4-oxadiazol-2-yl)(4-(quinolin-2-yl)-6,7-dihydro-1H-imidazo[4,5-c]pyridin-5(4H)-yl)methanone] |
| > 5000 nM | Cc1nc(C2(O)CCC2)oc1C(=O)N1CCc2[nH]cnc2C1c1ccc2ccccc2n1 (stereo in doubt) [Example 102, (S)-(2-(1-hydroxycyclobutyl)-4-methyloxazol-5-yl)(4-(quinolin-2-yl)-6,7-dihydro-1H-imidazo[4,5-c]pyridin-5(4H)-yl)methanone] |
| 500 to 1000 nM | CC(C)(F)c1ncc(C(=O)N2CCc3[nH]cnc3C2c2ccc3ccccc3n2)s1 (stereo in doubt) [Example 15, (R)-(2-(2-fluoropropan-2-yl)thiazol-5-yl)(4-(quinolin-2-yl)-6,7-dihydro-1H-imidazo[4,5-c]pyridin-5(4H)-yl)methanone] |
| 500 to 1000 nM | O=C(c1nnc(-c2ccc(C(F)(F)F)cn2)o1)N1CCc2[nH]cnc2[C@H]1c1ncc2ccccc2n1 [Example 170, (S)-(4-(quinazolin-2-yl)-6,7-dihydro-1H-imidazo[4,5-c]pyridin-5(4H)-yl)(5-(5-(trifluoromethyl)pyridin-2-yl)-1,3,4-oxadiazol-2-yl)methanone] |
| 500 to 1000 nM | Cn1nc(C(F)F)cc1C(=O)N1CCc2[nH]cnc2C1c1ccc2ccccc2n1 (stereo in doubt) [Example 73, (R)-(3-(difluoromethyl)-1-methyl-1H-pyrazol-5-yl)(4-(quinolin-2-yl)-6,7-dihydro-1H-imidazo[4,5-c]pyridin-5(4H)-yl)methanone] |
| < 500 nM | O=C(CCc1nccs1)N1CCc2[nH]cnc2[C@H]1c1ncc2ccccc2n1 [Example 273, (S)-1-(4-(quinazolin-2-yl)-6,7-dihydro-1H-imidazo[4,5-c]pyridin-5(4H)-yl)-3-(thiazol-2-yl)propan-1-one] |
| < 500 nM | O=C(CC1CC(F)C1)N1CCc2[nH]cnc2C1c1ccc2ccccc2n1 (stereo in doubt) [Example 53, (R)-2-(3-fluorocyclobutyl)-1-(4-(quinolin-2-yl)-6,7-dihydro-1H-imidazo[4,5-c]pyridin-5(4H)-yl)ethanone] |
| 1000 to 5000 nM | O=C(c1nnc(-c2ccc(F)cn2)o1)N1CCc2[nH]cnc2[C@@H]1c1ncc2ccccc2n1 [Example 167, (R)-(5-(5-fluoropyridin-2-yl)-1,3,4-oxadiazol-2-yl)(4-(quinazolin-2-yl)-6,7-dihydro-1H-imidazo[4,5-c]pyridin-5(4H)-yl)methanone] |

Source: patent US20250262201A1, “COMPOUNDS AND METHODS USEFUL FOR STABILIZING PHENYLALANINE HYDROXYLASE MUTATIONS” (Agios Pharmaceuticals, Inc., priority 2022, published 2025)
